Data published in patent US5591709A, “Compositions and methods for treating wounds” (Life Medical Sciences, Inc., priority 1995, dated 1997).

System: 2×3 cm full-thickness skin wounds on the dorsum
Assay: Guinea pig full-thickness skin wound closure (fractional change in wound area, closure rate, peak closure day)
Type: in vivo, Hartley-derived guinea pigs
Conditions: for Peak Closure Day (% Closure): % closure at the peak closure day; for Peak Closure Day: day of maximum closure rate, gel every 48 hours; for Closure % (Day) 50%: day on which 50% wound closure was reached, gel about 1 cc/cm^2 every 48 hours; for Peak closure rate (comparison in words): hormones in Agarose in saline (no medium), singly or three together; for Peak closure rate occurred later / closure rate of 50% slower: single hormone in Agarose in media; for Peak closure rate occurred later: compared to Media+3 hormones together; for closure rate of 50% slower: compared to the combination of the three hormones in media; for wound healing activity in medium relative to the same in saline: Agarose in medium vs Agarose in saline (without medium); for closure of 50% faster: single hormone in Agarose in saline (no medium), comparator not clearly stated
Description: Under general anaesthesia of […], four 2×3 cm full-thickness skin patches were surgically extirpated from the dorsum of Hartley-derived guinea pigs. After application of the gel (about 1 cc/cm^2) to the wounds, the wounds were dressed with Omiderm, a polyurethane-based synthetic wound dressing (Omikron, Israel) and anchored with gauze and elastic adhesive bandage. Change of the bandages and administration of the gels were performed every 48 hours, under general anaesthesia, at which time in one group, the wounds were washed with ESDC disinfectant (Symbollon Corp., Mass., USA), washed with warm saline, measured and photographed. Computerized morphometric measurements of the photographs were made and the dynamics of the regeneration process were quantified and analyzed. A more detailed description and the results of these experiments is presented herein. Hartley-derived Albino guinea pigs weighing 300-400 grams were used in this study. The animals were housed in individual cages and fed regularly guinea pig chow and water enriched with Vitamin C ad libitum. […] All histological sections were prepared using Hematoxylene and Eosin stain as well as Mason's trichrome method for collagen. Each animal was anesthetized and four bilaterally symmetrical full-thickness skin segments measuring 2×3 cm were excised from the dorsum of each animal, two from the scapular region and two from the lumbar region. After washing the wounds with warm saline, the wounds were dressed with the gel at a concentration of about 1 cc/cm^2, covered with a polyurethane based synthetic membrane Omiderm (Omikron, Israel) and anchored with gauze, elastic adhesive and a […]., Italy). The dressings were changed every 48 hours under general anaesthesia, at which time the wounds were washed with warm saline to remove any debris and the remaining gel within the wound, measured, photographed and fresh gel was applied and the wounds dressed as described above. In one experiment, a disinfectant compress of ESDC (Symbollon, Corp.) was applied during the change of dressing for about ten minutes, preceded and followed by warm saline rinse. At days 4, 6, 8, 10 and 12, the animals were sacrificed and the wounds with the surrounding tissues were extirpated and prepared for histological examination. The thickness of the newly formed epithelial layer and of the underlying granulation tissue were measured using light microscopy (Zeiss) at 100×magnification. The wound macrophotographs were analyzed using ImageMeasure (Phoenix Corp., Seattle, Wash.) computerized morphometric program and the experimental results were plotted as graphs showing the fractional change in area (i.e. closure rate) of the wounds treated with gel-media+hormones versus the various controls. The wound closure rate was tabulated and peak closure day (% closure) was determined. Peak closure rate has been used as a measure of wound healing potency. Peak closure rate is the maximum slope of the [formula] vs. time curve. Peak closure rate indicates the time after the start of the treatment at which tissue healing or growth rate reaches a maximum value (maximum rate); i.e., when the treatment is optimal.

Row | Compound | concentration level relative to triiodothyronine giving the same effect (relative to triiodothyronine) | Peak Closure Day (% Closure) | Peak Closure Day | Closure % (Day) 50% | Peak closure rate (comparison in words) | Peak closure rate occurred later | closure rate of 50% slower | wound healing activity in medium relative to the same in saline | wound healing, medium plus insulin vs medium plus IGF (Agarose in medium, IGF at 8 ng/ml, through day 9) | closure of 50% faster
1 | N[C@@H](Cc1cc(I)c(Oc2cc(I)c(O)c(I)c2)c(I)c1)C(=O)O [thyroxine, reference compound] | 3-5 times |  |  |  |  |  |  |  |  | 
2 | Growth Hormone: human growth hormone at 2 ng/ml in Agarose gel, in saline or in medium |  | 50% | 6.0 days | 6.0 days | the same | 33% | 75% |  |  | 
3 | Insulin |  | 30% | 3.0 days | 5.0 days | the same | 33% | 75% | substantially enhanced wound healing activity | substantially better | 15%
4 | Triiodothyronine/thyroxine [reference compound] |  | 30% | 3.0 days | 5.0 days | the same | 33% | 75% | substantially enhanced wound healing activity |  | 15%
